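Tested at 5 concentrations; 48 h exposure; 96-well plates; endpoints linearly interpolated, else capped at highest concentration. GI50 = concentration required for 50% inhibition of growth.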 Active and inactive are the calls of the source. Cut-off read from the data, not from the text of the source: active = GI50 up to about 1.1 µM and inactive = higher.
Legend:
Assay in all cases: NCI tumour cell line growth inhibition, 48 h
SF-539 = tested on: SF-539
TK-10 = tested on: TK-10
UO-31 = tested on: UO-31
SN12C = tested on: SN12C
MCF7 = tested on: MCF7
COLO 205 = tested on: COLO 205
RXF 393 = tested on: RXF 393
U-251 = tested on: U-251
SF-268 = tested on: SF-268
MDA-MB-435 = tested on: MDA-MB-435
Hs-578T = tested on: Hs-578T
OVCAR-3 = tested on: OVCAR-3
HT-29 = tested on: HT-29
OVCAR-5 = tested on: OVCAR-5
M14 = tested on: M14
HCC 2998 = tested on: HCC 2998
CCRF-CEM = tested on: CCRF-CEM
SW-620 = tested on: SW-620
SNB-75 = tested on: SNB-75
ACHN = tested on: ACHN

Measured: GI50

O=C(/C=C/c1ccc(-c2ccccc2)cc1)NCc1ccc(C(=O)NCCc2c[nH]c3ccccc23)cc1
inactive: SF-539 43.5 µM | TK-10 26.2 µM | UO-31 26.7 µM | SN12C 5.08 µM | MCF7 89.9 µM | COLO 205 > 100 µM | RXF 393 19.8 µM | U-251 11.9 µM | SF-268 39.7 µM | MDA-MB-435 > 100 µM | Hs-578T 38.5 µM | OVCAR-3 28.9 µM | HT-29 11.5 µM | OVCAR-5 11.5 µM | M14 80.9 µM | HCC 2998 83.4 µM | CCRF-CEM 13.9 µM | SW-620 34 µM | SNB-75 11.2 µM | ACHN 35.8 µM

Cc1cc(NS(=O)(=O)c2ccc(Nc3c4ccccc4nc4ccc(C(=O)Nc5ccc(S(N)(=O)=O)cc5)cc34)cc2)no1
inactive: SF-539 > 100 µM | TK-10 > 100 µM | UO-31 > 100 µM | SN12C > 100 µM | MCF7 > 100 µM | COLO 205 > 100 µM | RXF 393 > 100 µM | U-251 57.4 µM | SF-268 > 100 µM | MDA-MB-435 > 100 µM | Hs-578T > 100 µM | OVCAR-3 > 100 µM | HT-29 > 100 µM | OVCAR-5 > 100 µM | M14 > 100 µM | HCC 2998 > 100 µM | CCRF-CEM > 100 µM | SW-620 > 100 µM | SNB-75 > 100 µM | ACHN > 100 µM

COc1c2c(nc3ccccc13)-c1cc(C(CC(=O)OC(C)(C)C)C(=O)OC(C)C)c(CO)c(=O)n1C2 (stereo not given)
inactive: SF-539 36.9 µM | TK-10 > 100 µM | UO-31 > 36.7 µM | SN12C 45.8 µM | MCF7 6.85 µM | COLO 205 88.5 µM | RXF 393 > 100 µM | U-251 42.5 µM | SF-268 > 62.8 µM | MDA-MB-435 > 94.2 µM | Hs-578T > 75.3 µM | OVCAR-3 > 100 µM | HT-29 58.5 µM | OVCAR-5 98.6 µM | M14 39 µM | HCC 2998 > 100 µM | CCRF-CEM 4.48 µM | SW-620 > 96.6 µM | SNB-75 > 93.8 µM | ACHN 21.9 µM

CCCCCOc1ccc(NC2=C(Cl)C(=O)c3c(O)ccc(O)c3C2=O)cc1
inactive: SF-539 6.52 µM | TK-10 5.97 µM | UO-31 5.26 µM | SN12C 2.96 µM | MCF7 1.33 µM | COLO 205 2.63 µM | RXF 393 4.71 µM | U-251 6.38 µM | SF-268 > 10 µM | MDA-MB-435 2.24 µM | Hs-578T 1.91 µM | OVCAR-3 4.2 µM | HT-29 4.75 µM | OVCAR-5 > 10 µM | M14 3.03 µM | HCC 2998 2.65 µM | CCRF-CEM 3.52 µM | SW-620 3.87 µM | SNB-75 > 10 µM | ACHN > 10 µM

Nc1ncn([C@H]2C[C@H](O)[C@@H](CO)O2)c(=O)n1 [DECITABINE]
inactive: SF-539 92 µM | TK-10 46.8 µM | UO-31 298 µM | SN12C 83.8 µM | MCF7 74.8 µM | COLO 205 37.7 µM | RXF 393 136 µM | U-251 102 µM | SF-268 119 µM | MDA-MB-435 2.49 µM | Hs-578T 3.32 µM | OVCAR-3 76.6 µM | HT-29 51.3 µM | OVCAR-5 106 µM | M14 9.59 µM | HCC 2998 105 µM | CCRF-CEM 4.59 µM | SW-620 29 µM | SNB-75 82.8 µM | ACHN 21.5 µM

CC(=O)NNc1nc(C)c(C(/C=C/c2ccc([N+](=O)[O-])cc2)=N/NC(N)=O)s1
inactive: SF-539 > 100 µM | TK-10 > 100 µM | UO-31 > 100 µM | SN12C > 100 µM | MCF7 > 100 µM | COLO 205 > 100 µM | RXF 393 > 100 µM | U-251 > 100 µM | SF-268 > 100 µM | MDA-MB-435 > 100 µM | Hs-578T > 100 µM | OVCAR-3 > 100 µM | HT-29 > 100 µM | OVCAR-5 > 100 µM | M14 > 100 µM | HCC 2998 > 100 µM | CCRF-CEM > 100 µM | SW-620 > 100 µM | SNB-75 > 100 µM | ACHN > 100 µM

Cc1ccc([S+]([O-])c2sccc2C=O)cc1 (stereo not given)
inactive: SF-539 21 µM | TK-10 > 100 µM | UO-31 70.1 µM | SN12C 22.9 µM | MCF7 21.4 µM | COLO 205 41 µM | RXF 393 56.9 µM | U-251 18.9 µM | SF-268 28.8 µM | MDA-MB-435 24.7 µM | Hs-578T 24.4 µM | OVCAR-3 > 10 µM | HT-29 19.8 µM | OVCAR-5 49.2 µM | M14 20 µM | HCC 2998 32.7 µM | CCRF-CEM 20 µM | SW-620 24.2 µM | SNB-75 33.9 µM | ACHN 63 µM
